According to PubChem BioAssay (NCI):
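Tested at 5 concentrations; 48 h exposure; 96-well plates; endpoints linearly interpolated, else capped at highest concentration. TGI: total growth inhibition.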

Experiments:
Experiment in all cases: NCI anticancer screen, dose series, 48 h
[1] = tested on: 786-0 renal
[2] = tested on: A498 renal
[3] = tested on: A549 NSCLC
[4] = tested on: ACHN renal
[5] = tested on: BT-549 breast
[6] = tested on: CAKI-1 renal
[7] = tested on: CCRF-CEM leukemia
[8] = tested on: COLO 205 colon
[9] = tested on: DU-145 prostate
[10] = tested on: EKVX NSCLC
[11] = tested on: HCC-2998 colon
[12] = tested on: HCT-116 colon
[13] = tested on: HCT-15 colon
[14] = tested on: HL-60(TB) leukemia
[15] = tested on: HOP-62 NSCLC
[16] = tested on: HS 578T breast
[17] = tested on: HT29 colon
[18] = tested on: IGROV1 ovarian
[19] = tested on: K-562 leukemia
[20] = tested on: KM12 colon
[21] = tested on: LOX IMVI melanoma
[22] = tested on: M14 melanoma
[23] = tested on: MALME-3M melanoma
[24] = tested on: MCF7 breast
[25] = tested on: MDA-MB-231 breast
[26] = tested on: MDA-MB-435
[27] = tested on: MDA-N
[28] = tested on: MOLT-4 leukemia
[29] = tested on: NCI-H226 lung
[30] = tested on: NCI-H23 lung
[31] = tested on: NCI-H460 lung
[32] = tested on: NCI-H522 lung
[33] = tested on: NCI/ADR-RES ovarian
[34] = tested on: OVCAR-3 ovarian
[35] = tested on: OVCAR-4 ovarian
[36] = tested on: OVCAR-5 ovarian
[37] = tested on: OVCAR-8 ovarian
[38] = tested on: PC-3 prostate
[39] = tested on: RPMI-8226 leukemia
[40] = tested on: RXF 393 renal
[41] = tested on: SF-268 CNS
[42] = tested on: SF-295 CNS
[43] = tested on: SK-MEL-2 melanoma
[44] = tested on: SK-MEL-28 melanoma
[45] = tested on: SK-MEL-5 melanoma
[46] = tested on: SK-OV-3 ovarian
[47] = tested on: SNB-19 CNS
[48] = tested on: SNB-75 CNS
[49] = tested on: SW-620 colon
[50] = tested on: TK-10 renal
[51] = tested on: U251 CNS
[52] = tested on: UACC-257 melanoma
[53] = tested on: UACC-62 melanoma
[54] = tested on: UO-31 renal

## COc1ccc(-c2csc(Cc3nc4ccccc4c(=O)n3-c3ccc(Cl)cc3)n2)cc1
[1]
  TGI: > 100 µM
[2]
  TGI: > 100 µM
[3]
  TGI: > 100 µM
[4]
  TGI: > 100 µM
[5]
  TGI: > 100 µM
[6]
  TGI: > 100 µM
[7]
  TGI: > 100 µM
[8]
  TGI: > 100 µM
[9]
  TGI: > 100 µM
[10]
  TGI: 62.7 µM
[11]
  TGI: > 100 µM
[12]
  TGI: 57.9 µM
[13]
  TGI: 97.6 µM
[14]
  TGI: > 100 µM
[15]
  TGI: > 100 µM
[16]
  TGI: > 100 µM
[17]
  TGI: > 100 µM
[18]
  TGI: > 100 µM
[19]
  TGI: 41.8 µM
[20]
  TGI: > 100 µM
[21]
  TGI: > 100 µM
[22]
  TGI: 65.1 µM
[23]
  TGI: > 100 µM
[24]
  TGI: > 100 µM
[25]
  TGI: > 100 µM
[26]
  TGI: > 100 µM
[27]
  TGI: 59 µM
[28]
  TGI: 67.4 µM
[29]
  TGI: > 100 µM
[30]
  TGI: > 100 µM
[31]
  TGI: > 100 µM
[32]
  TGI: > 100 µM
[33]
  TGI: > 100 µM
[34]
  TGI: > 100 µM
[35]
  TGI: > 100 µM
[36]
  TGI: 62.1 µM
[37]
  TGI: > 100 µM
[38]
  TGI: > 100 µM
[39]
  TGI: 45.8 µM
[40]
  TGI: > 100 µM
[41]
  TGI: > 100 µM
[42]
  TGI: > 100 µM
[43]
  TGI: 35.3 µM
[44]
  TGI: 59.5 µM
[45]
  TGI: 41.1 µM
[46]
  TGI: > 100 µM
[47]
  TGI: 77.7 µM
[48]
  TGI: > 100 µM
[49]
  TGI: > 100 µM
[50]
  TGI: > 100 µM
[51]
  TGI: > 100 µM
[52]
  TGI: > 100 µM
[53]
  TGI: 68.3 µM
[54]
  TGI: > 100 µM
